Results: patent publication US20030113913A1, “Method of enhancing self renewal of stem cells and uses thereof” (PETER MACCALLUM CANCER INSTITUTE, priority 2001, published 2003)

Tests used:
[1] = test system: lin− c-kit+ Sca-1+ CD45.2+ (LKS) murine hematopoietic precursors; test: Serial transplantation of LKS hematopoietic precursors cultured with or without ATRA (congenic mouse model); assay type: in vivo; settings: for donor repopulating levels of quaternary transplant recipients: CD45.2+ donor cells in peripheral blood, mean ± SEM
Protocol: 2000 FACS-enriched hematopoietic precursors (lin− c-kit+ Sca-1+) were added to wells containing media and cytokines (SCF, IL-6, IL-11 and Flt-3 ligand), and cultured without (No ATRA) or with (ATRA) 1 umol ATRA. Irradiated primary Ly5.1 recipients (6 mice per group) were transplanted with 100 000 normal Ly5.1 bone marrow cells together with 1000 noncultured (Start) Ly5.2 lin− c-kit+ Sca-1+ cells or with all cells that grew from 1000 of these precursors after 3 (3D) or 7 (7D) days in liquid suspension culture. Subsequent transplants (secondary, tertiary and quaternary) were performed using fractions of bone marrow harvested from the primary, secondary or tertiary, respectively, transplant recipients. Data are expressed as the mean +/− SEM donor cell reconstitution in the peripheral blood of transplanted recipients analyzed at 6 months (primary recipients) or 3 months (secondary, tertiary and quaternary recipients) post-transplant.
These studies may be proven using in vivo assays, preferably using small animal models, more preferably using the congenic mouse hematopoietic stem cell transplantation model. This model relies on the use of donor and recipient mice that can be distinguished from each other by the presence of different epitopes for the leukocyte common antigen, which is present on all white blood cells.
Irradiated CD45.1+ primary murine recipients were transplanted with 1×10^5 normal CD45.1+ bone marrow cells together with 1000 freshly isolated lin− c-kit+ Sca-1+ CD45.2+ (LKS) murine hematopoietic precursors or with all cells that grew from 1000 LKS after 3 or 7 days of culture with or without 1 μM ATRA. Primary recipients were euthanased 6 months post-transplant, their femoral marrows flushed and pooled within treatment groups and bone marrow from 1/10th of a femur of these mice were injected into each secondary irradiated recipient. Subsequent serial transplants were likewise performed at 4 month intervals post-transplant, with the 5th serial transplant currently being assessed. Recipient mice were analysed for multilineage repopulating donor cells (>5% CD45.2+) in each round of transplants.

RARβ2 = test: RT-PCR expression of RARβ2 in LKS+ and LKS− cells cultured with or without ATRA; assay type: cell-based, murine; settings: cells derived from LKS+ and LKS− cultured with 1 μmol ATRA for 3, 7 or 14 days
Protocol: FACS-enriched hematopoietic precursors (lin− c-kit+ Sca-1+ or lin− c-kit+ Sca-1−) were added to wells containing media and cytokines (SCF, IL-6, IL-11 and Flt-3 ligand), and cultured without (No ATRA) or with (+ATRA) 1 μmol ATRA for 3, 7 or 14 days. […] LKS+=lin− c-kit+ Sca-1+ cells, LKS−=lin− c-kit+ Sca-1− cells; D=day of culture.
(§1) Consideration was then given to the expression of the different RARs by progeny derived from lin− c-kit+ Sca-1+ cells (LKS+) or lin− c-kit+ Sca-1− cells (LKS−) after they had been cultured with or without ATRA for 3, 7 and 14 days.

RARγ1 = test: RT-PCR expression of RARγ1 in LKS+ and LKS− cells cultured with or without ATRA; assay type: cell-based, murine
Protocol: FACS-enriched hematopoietic precursors (lin− c-kit+ Sca-1+ or lin− c-kit+ Sca-1−) were added to wells containing media and cytokines (SCF, IL-6, IL-11 and Flt-3 ligand), and cultured without (No ATRA) or with (+ATRA) 1 μmol ATRA for 3, 7 or 14 days. After culture, the cells were retrieved, mRNA prepared and expression of RAR γ 1 was analysed by RT-PCR methods. LKS+=lin− c-kit+ Sca-1+ cells, LKS−=lin− c-kit+ Sca-1− cells; D=day of culture.
as §1

evidence of leukemia in recipient mice ([1]; recipients of ATRA-treated LKS, successive rounds of transplants): nor was there any evidence of leukemia
Compound: CC1=C(/C=C/C(C)=C/C=C/C(C)=C/C(=O)O)C(C)(C)CCC1 [ATRA, all trans-retinoic acid]
donor repopulating levels of quaternary transplant recipients ([1]; LKS cultured 3 days with 1 μM ATRA): 20.09±8.63%
donor repopulating levels of quaternary transplant recipients ([1]; LKS cultured 7 days with 1 μM ATRA): 14.98±5.94%
multilineage donor reconstituting ability in serial transplant recipients ([1]; all serial transplant recipients of 3 day and 7 day ATRA-treated LKS (1 μM)): significant multilineage donor reconstituting ability
marrow cellularity of transplanted mice ([1]; successive rounds of transplants, all treatment groups compared): no significant difference in marrow cellularity
RARβ2 expression (RARβ2): upregulates RARβ2 in cultured cells
RARγ1 expression (RARγ1; LKS+ cells cultured with 1 μmol ATRA for 3, 7 or 14 days): maintained
RARγ1 expression (RARγ1; LKS− cells cultured with 1 μmol ATRA): not expressed
